From US9560876B2, “Acylamino acid compounds and food preparations containing same” (Nestec S.A., priority 2008, dated 2017)

Molecular target: human TRPA1 (Homo sapiens, UniProt O75762)
Assay: Intracellular calcium [Ca2+]i flux in HEK 293 cells stably expressing TRPA1 (FLEXstation, Fura-2/AM)
Type: cell-based
Details: saturating concentration
Method: Cloning and Expression of Human TRPV1 and TRPA1 Receptors in HEK 293 Cells: Cloning and expression of these receptors was performed following previously published protocols. Briefly, cloned human TRPV1 cDNA was obtained from RZPD (Germany) and hTRPA1 cDNA from OriGene (Rockville, Md.). Genes were subcloned into pcDNA5/FRT (Invitrogen, Carlsbad, Calif.) to generate stable cell lines using the Flp-In system (Invitrogen) after sequencing verification.
Measurement of Intracellular Calcium Levels [Ca2+]i and Membrane Potential Variation in HEK 293 Cells Using a Fluorescent Plate Reader: Cell lines stably expressing TRP channels were seeded into 96-well plates previously coated with poly-D-lysine. […] [Ca2+]i fluxes from a homogeneous cell population (approximately 100000 cells) were measured as changes in fluorescence intensity when stimulated with agonists using a FLEXstation (Molecular Devices). […]
Data Analysis: Responses of molecules in HEK 293 cells were expressed as a percentage of maximum responses evoked by 150 μM cinnamaldehyde for TRPA1 and 1 μM capsaicin for TRPV1 (these concentrations were assessed independently to be saturating under these conditions). For all experiments, calcium fluxes were measured as changes in fluorescence intensity, before and after the addition of agonists. […] Data obtained from this study were expressed as mean SEM. […]

human TRPA1, sequence (O75762 whole entry): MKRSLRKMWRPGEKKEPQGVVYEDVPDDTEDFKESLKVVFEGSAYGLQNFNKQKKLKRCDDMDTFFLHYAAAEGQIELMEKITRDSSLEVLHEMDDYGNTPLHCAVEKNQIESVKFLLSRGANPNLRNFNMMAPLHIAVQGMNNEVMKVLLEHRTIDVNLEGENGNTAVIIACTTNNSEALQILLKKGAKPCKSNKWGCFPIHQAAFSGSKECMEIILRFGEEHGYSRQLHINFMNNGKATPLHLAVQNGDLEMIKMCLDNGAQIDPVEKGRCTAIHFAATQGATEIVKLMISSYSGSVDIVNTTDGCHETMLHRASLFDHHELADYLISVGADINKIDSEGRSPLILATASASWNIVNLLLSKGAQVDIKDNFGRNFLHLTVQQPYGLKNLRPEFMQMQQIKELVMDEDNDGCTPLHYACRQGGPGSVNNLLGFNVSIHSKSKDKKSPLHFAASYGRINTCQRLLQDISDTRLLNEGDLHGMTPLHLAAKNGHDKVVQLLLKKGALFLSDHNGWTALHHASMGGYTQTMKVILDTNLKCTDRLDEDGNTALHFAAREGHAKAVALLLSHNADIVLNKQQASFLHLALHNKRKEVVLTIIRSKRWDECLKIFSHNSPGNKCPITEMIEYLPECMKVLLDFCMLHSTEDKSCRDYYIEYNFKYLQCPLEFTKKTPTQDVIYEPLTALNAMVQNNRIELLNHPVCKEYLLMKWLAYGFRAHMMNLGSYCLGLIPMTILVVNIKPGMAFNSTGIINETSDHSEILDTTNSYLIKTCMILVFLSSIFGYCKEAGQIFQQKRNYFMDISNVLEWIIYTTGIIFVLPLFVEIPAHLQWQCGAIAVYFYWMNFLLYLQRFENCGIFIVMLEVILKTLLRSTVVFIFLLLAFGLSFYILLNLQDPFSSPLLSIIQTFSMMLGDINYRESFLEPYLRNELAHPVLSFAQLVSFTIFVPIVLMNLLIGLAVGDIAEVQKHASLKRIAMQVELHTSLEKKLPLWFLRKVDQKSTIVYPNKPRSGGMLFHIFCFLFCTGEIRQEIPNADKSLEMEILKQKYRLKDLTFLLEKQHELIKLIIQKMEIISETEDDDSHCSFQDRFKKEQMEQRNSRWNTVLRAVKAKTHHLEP

CCC=CCC=CCC=CCCCCCCCC(=O)NC(C)C(=O)O (centres unmarked) [K]
selectivity of activation, TRPA1 versus TRPV1 (comparison of TRPA1 and TRPV1 activation in HEK 293 cells): purely activating TRPA1 | maximum activation on TRPA1 (responses expressed as percentage of maximum response evoked by 150 μM cinnamaldehyde, FIG. 1): strong stimulating effect
